Assay results reported in patent EP4389751A1, “HETEROCYCLIC COMPOUNDS AND USES THEREOF” (Kumquat Biosciences Inc., priority 2021, dated 2024).
Where two headings read alike, the source gives them in different places.

Legend:
[1] = molecular target: T1, KRAS protein (His-tagged GDP-loaded G12S 1-169) (Homo sapiens, UniProt P01116, G12S); assay: Covalent modification of KRAS protein, intact-protein LC-MS; type: binding; conditions: 24hrs at room temperature, KRAS protein ~2 µM
T1 construct: His-tagged GDP-loaded G12S 1-169
In short: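 Percent covalent modification derives from deconvoluted intact-mass intensities of compound-adducted versus unmodified KRAS, measured by LC-ESI-MS. Before analysis, ~2 µM GDP-loaded His-KRAS 1-169 was exposed to compound for 24 h at room temperature and acidified with formic acid.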

[2] = molecular target: T2, K-Ras G12S (Homo sapiens, UniProt P01116, G12S); assay: HTRF assay of the K-Ras / SOS1 interaction; type: biochemical; conditions: IC50 (against K-Ras G12D) to IC50 (against K-Ras G12S)
T2 construct: made in house; host or cells: E. coli (e.g., BL21 (DE3))
In short: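 Compounds (duplicates, 10 µM to 0.01 µM) were incubated ≥~10 min with Eu-labelled GST-K-Ras G12S and XL665-labelled His-hSOS1 in HEPES pH 7.4 buffer containing NaCl, DTT, BSA and Igepal. Disruption measured as HTRF emission ratio 665/620 nm, fitted to IC50.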

[3] = Metabolic (microsomal) stability assay; type: in vitro ADME; conditions: mouse and/or human liver microsomal metabolism assays, greater than 10, 20, 30, 40, 50, 60 mins or longer
Method: All incubations are conducted in duplicate. […] Supernatants (40 µL) are transferred into clean 96-deep well plates.
The column temperature is maintained at 40 °C.
(Ct)/(C0) = e^−kt [formula]

[4] = system: GP2D cells; assay: Cell proliferation assay (CellTiter-Glo), K-Ras G12D cells; type: cell-based; conditions: GP2D cells (K-Ras G12D); read-out: Inhibition of GP2D Cells (IC50)
In short: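 CellTiter-Glo luminescence, taken roughly 5 days after dosing, measured growth of G12D-mutant GP2D cells in DMEM/2 mM glutamine/10% FBS. Compound dilution series (e.g., 9 points, 3-fold) added the day after plating. Four-parameter fitting gave IC50.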

[5] = system: A549 cells; assay: Cell proliferation assay (CellTiter-Glo), K-Ras G12S cells; type: cell-based; conditions: Homo sapiens, A549, A549 cells (K-Ras G12S), read-out: Inhibition of A549 Cells (IC50)
In short: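 A549 cells (K-Ras G12S) in RPMI-1640 with 10% FBS, seeded in standard or ultra-low-attachment plates and dosed next day with a 10-point 3-fold series. Viability read about 6 days later by CellTiter-Glo luminescence. IC50 from four-parameter fit.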

N#Cc1c(N)sc2c(F)ccc(-c3c(Cl)cc4c(N5CC6CCC(C5)N6C(=O)n5ncnc5Cl)nc(OC[C@@]56CCCN5C[C@H](F)C6)nc4c3F)c12 [Compound A194]
% G12S Modification at 24 hr. [1]: ++ (++ indicates between about 1%- 20% labelling) | Ratio of IC50 KRAS G12D vs. IC50 KRAS G12S [2]: A (A: indicates that the ratio of IC50 against KrasG12D vs. IC50 against KrasG12S is 1-fold or greater) | T1/2 ([3]; 0.5 µM): greater than 10 mins | IC50 [4]: ≤ 1000 nM

C#Cc1c(F)ccc2cc(O)cc(-c3ncc4c(N5CC6CCC(C5)N6C(=O)n5cnc(C#N)c5)nc(OC[C@@]56CCCN5C[C@H](F)C6)nc4c3F)c12 [Compound A255, 1-(3-(7-(8-ethynyl-7-fluoro-3-hydroxynaphthalen-1-yl)-8-fluoro-2-(((2R,7aS)-2-fluorotetrahydro-1H-pyrrolizin-7a(5H)-yl)methoxy)pyrido[4,3-d]pyrimidin-4-yl)-3,8-diazabicyclo[3.2.1]octane-8-carbonyl)-1H-imidazole-4-carbonitrile]
% G12S Modification at 24 hr. [1]: ++ (++ indicates between about 1%- 20% labelling) | IC50 ([5]; bin 500 nM to 5 µM): 500 to 5000 nM | IC50 [4]: ≤ 1000 nM

C[C@H](Oc1nc(N2CCOC3(CN(C(=O)n4cncn4)C3)C2)c2cc(Cl)c(-c3ccc(F)c4sc(N)c(C#N)c34)c(F)c2n1)[C@@H]1CCCN1C [Compound A275, 4-(4-(2-(1H-1,2,4-triazole-1-carbonyl)-5-oxa-2,8-diazaspiro[3.5]nonan-8-yl)-6-chloro-8-fluoro-2-((S)-1-((S)-1-methylpyrrolidin-2-yl)ethoxy)quinazolin-7-yl)-2-amino-7-fluorobenzo[b]thiophene-3-carbonitrile]
% G12S Modification at 24 hr. [1]: +++ (+++ indicates greater than 20% labelling) | IC50 ([5]; bin ≤ 500 nM): ≤ 500 nM | IC50 [4]: 1000 to 10000 nM

N#Cc1cnn(C(=O)N2C3CCC2CN(c2nc(OC[C@@]45CCCN4C[C@H](F)C5)nc4c(F)c(-c5ccc(F)c6sc(N)c(C#N)c56)c(Cl)cc24)C3)c1 [Compound A278, 1-(3-(7-(2-amino-3-cyano-7-fluorobenzo[b]thiophen-4-yl)-6-chloro-8-fluoro-2-(((2R,7aS)-2-fluorotetrahydro-1H-pyrrolizin-7a(5H)-yl)methoxy)quinazolin-4-yl)-3,8-diazabicyclo[3.2.1]octane-8-carbonyl)-1H-pyrazole-4-carbonitrile]
Ratio of IC50 KRAS G12D vs. IC50 KRAS G12S [2]: A (A: indicates that the ratio of IC50 against KrasG12D vs. IC50 against KrasG12S is 1-fold or greater) | half-life at 0.5 µM ([3]; liver microsomes, pH 7.4): > 10 min | IC50 [4]: ≤ 1000 nM

N#Cc1c(N)sc2c(F)ccc(-c3c(Cl)cc4c(N5CCCCC6(CN(C(=O)n7cncn7)C6)C5)nc(OC[C@@]56CCCN5C[C@H](F)C6)nc4c3F)c12 [Compound A295, 4-(4-(2-(1H-1,2,4-triazole-1-carbonyl)-2,6-diazaspiro[3.6]decan-6-yl)-6-chloro-8-fluoro-2-(((2R,7aS)-2-fluorotetrahydro-1H-pyrrolizin-7a(5H)-yl)methoxy)quinazolin-7-yl)-2-amino-7-fluorobenzo[b]thiophene-3-carbonitrile]
% G12S Modification at 24 hr. [1]: +++ (+++ indicates greater than 20% labelling) | IC50 ([5]; bin ≤ 500 nM): ≤ 500 nM | IC50 [4]: ≤ 1000 nM
